# Square brackets hold non-standard residues; d marks the D form. Peptide text beside a SMILES is read from it. * marks the point of attachment. pGlu = O=C1CC[C@@H](C(=O)O)N1; Boc = CC(C)(C)OC(=O)*; Bz = O=C(c1ccccc1)*; ClAc = O=C(CCl)*
# Assays:
# ACE [1] = target: T1, ACE (Oryctolagus cuniculus, UniProt P12822); conditions: cited from earlier work
# T1 sequence (P12822 34-1310): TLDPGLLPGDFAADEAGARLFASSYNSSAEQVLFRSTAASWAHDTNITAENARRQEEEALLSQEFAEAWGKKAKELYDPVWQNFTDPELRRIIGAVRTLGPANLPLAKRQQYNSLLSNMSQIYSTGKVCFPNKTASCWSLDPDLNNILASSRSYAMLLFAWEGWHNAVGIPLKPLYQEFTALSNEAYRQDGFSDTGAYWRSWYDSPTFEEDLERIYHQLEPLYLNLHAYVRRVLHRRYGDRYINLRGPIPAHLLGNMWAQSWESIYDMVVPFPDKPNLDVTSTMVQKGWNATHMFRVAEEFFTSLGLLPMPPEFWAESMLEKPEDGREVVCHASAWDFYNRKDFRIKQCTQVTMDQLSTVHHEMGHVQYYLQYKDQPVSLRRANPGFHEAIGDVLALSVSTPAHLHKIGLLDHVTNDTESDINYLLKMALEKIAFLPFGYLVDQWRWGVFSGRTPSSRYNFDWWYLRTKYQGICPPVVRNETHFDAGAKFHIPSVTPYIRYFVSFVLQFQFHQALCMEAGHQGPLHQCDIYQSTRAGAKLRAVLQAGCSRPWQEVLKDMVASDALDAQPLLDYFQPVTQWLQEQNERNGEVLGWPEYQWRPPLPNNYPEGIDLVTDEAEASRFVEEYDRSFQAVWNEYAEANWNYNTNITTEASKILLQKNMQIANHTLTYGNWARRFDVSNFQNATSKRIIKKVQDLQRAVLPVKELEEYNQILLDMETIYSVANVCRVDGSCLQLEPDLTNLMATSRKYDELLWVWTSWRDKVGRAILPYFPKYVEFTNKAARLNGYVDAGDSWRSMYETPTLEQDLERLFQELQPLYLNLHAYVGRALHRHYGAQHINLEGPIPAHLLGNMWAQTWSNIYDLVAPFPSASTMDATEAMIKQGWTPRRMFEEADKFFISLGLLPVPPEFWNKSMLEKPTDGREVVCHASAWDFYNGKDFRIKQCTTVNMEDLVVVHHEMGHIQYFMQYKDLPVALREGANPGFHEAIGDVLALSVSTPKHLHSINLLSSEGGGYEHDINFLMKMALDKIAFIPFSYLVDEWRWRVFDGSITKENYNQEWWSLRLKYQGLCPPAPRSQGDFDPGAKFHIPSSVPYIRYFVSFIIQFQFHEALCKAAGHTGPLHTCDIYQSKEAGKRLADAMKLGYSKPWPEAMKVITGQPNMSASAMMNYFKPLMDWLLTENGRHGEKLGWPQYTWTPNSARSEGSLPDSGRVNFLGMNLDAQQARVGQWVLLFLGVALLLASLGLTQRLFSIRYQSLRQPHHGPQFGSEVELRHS
# [2] = Solvent extraction of substrate and remnant product from acidified reaction mixture; format: physicochemical; conditions: toluene and acidified reaction mixture in approximately equal volumes at room temperature
# From the text: While a variety of organic solvents may be suitable for the extraction step, it is preferred to employ toluene.
# [3] = tested on: enzyme isolated from hog lung (ACE); conditions: cited from earlier work
# ACE [4] = target: T1, ACE; conditions: compared with a buffer presumably lacking chloride; cited from earlier work
# [5] = sulfate ion 0.6 M in the presence of 0.1 M chloride, pH 8
smiles,measurement,setting,value
C[C@H](NC(=O)[C@H](Cc1ccccc1)NC(=O)CCl)C(=O)N1CCC[C@H]1C(=O)O [chloroacetylPheAlaPro] (ClAc-Phe-Ala-Pro-OH),ACE inhibition,ACE [1],ACE inhibitors
C[C@H](NC(=O)[C@@H](N)Cc1ccccc1)C(=O)N1CCC[C@H]1C(=O)O [PheAlaPro] (H-Phe-Ala-Pro-OH),ACE inhibition,ACE [1],inhibit ACE
"O=C(N[C@@H](Cc1ccccc1)C(=O)O)c1ccccc1 [^3 H-benzoylPhe, benzoylPhe]",fraction entering the toluene phase,[2],Approximately 88%
O=C(O)CNC(=O)CNC(=O)CNC(=O)c1ccccc1 [HipGlyGly] (Bz-Gly-Gly-Gly-OH),hydrolysis in the absence of NaCl,"[3]; Na2 SO4 0.001 M to 0.6 M, no NaCl",no hydrolysis
same,decrease of Km by sulfate,[3]; [5],about 15%
same,increase of Vmax by sulfate,[3]; [5],about 5 fold
"C[C@H](NC(=O)[C@H](Cc1c[nH]c2ccccc12)NC(=O)[C@H](CCCCN)NC(=O)[C@@H]1CCC(=O)N1)C(=O)N1CCC[C@H]1C(=O)O [SQ20475, <GluLysTrpAlaPro] ([pGlu]KWAP-OH)",rate of cleavage in the presence of chloride,ACE [4],more slowly
C[C@H](NC(=O)[C@H](Cc1c[nH]c2ccccc12)NC(=O)[C@H](CCCCN)NC(=O)[C@@H]1CCC(=O)N1)C(=O)O [<GluLysTrpAla] ([pGlu]KWA-OH),ACE inhibition,ACE [1],ACE inhibitors
C[C@H](NC(=O)[C@H](Cc1ccccc1)NC(=O)OC(C)(C)C)C(=O)N1CCC[C@H]1C(=O)O [t-butyloxycarbonylPheAlaPro] (Boc-Phe-Ala-Pro-OH),ACE inhibition,ACE [1],inhibit ACE
C[C@H](NC(=O)[C@H](Cc1c[nH]c2ccccc12)NC(=O)[C@@H]1CCC(=O)N1)C(=O)N1CCC[C@H]1C(=O)O [<GluTrpAlaPro] ([pGlu]WAP-OH),ACE inhibition,ACE [1],ACE inhibitors
